Test results reported in PubChem BioAssay AID2060329 (Molecular Pharmacology Branch, DTP, NCI, 2025).
“And” between values parts separate entries of the source, which are not always exact repeats. Equal entries are not always repeated.

System: MCF7 multi-cell spheroids with HUVEC/MSC, viability
Assay: Anticancer human tumor MCF7 cell line growth inhibition [IpAb];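 note: spheroids exposed to agents for seven days before readout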
Details: for viability, T/C: stronger effect = lower value
Procedure, shortened: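 Spheroids of 60% malignant cells, 25% HUVEC and 15% MSC were exposed to targeted agents combined with ipatasertib or abemaciclib. Doses started at or near clinical Cmax (10 microM when unknown) and fell in half-log steps.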

[1] = curve of first compound, second compound 0.01 µM
[2] = curve of first compound, second compound 0.0316 µM
[3] = curve of first compound, second compound 0.1 µM
[4] = curve of first compound, second compound 0.316 µM
[5] = curve of first compound, second compound 1 µM
[6] = second compound 0.01 µM, first compound 0.00316 µM
[7] = second compound 0.01 µM, first compound 0.01 µM
[8] = second compound 0.01 µM, first compound 0.0316 µM
[9] = second compound 0.01 µM, first compound 0.1 µM
[10] = second compound 0.0316 µM, first compound 0.00316 µM
[11] = second compound 0.0316 µM, first compound 0.01 µM
[12] = second compound 0.0316 µM, first compound 0.0316 µM
[13] = second compound 0.0316 µM, first compound 0.1 µM
[14] = second compound 0.1 µM, first compound 0.00316 µM
[15] = second compound 0.1 µM, first compound 0.01 µM
[16] = second compound 0.1 µM, first compound 0.0316 µM
[17] = second compound 0.1 µM, first compound 0.1 µM
[18] = second compound 0.1 µM, first compound 0.316 µM
[19] = second compound 0.1 µM, first compound 1 µM
[20] = second compound 0.316 µM, first compound 0.00316 µM
[21] = second compound 0.316 µM, first compound 0.01 µM
[22] = second compound 0.316 µM, first compound 0.0316 µM
[23] = second compound 0.316 µM, first compound 0.1 µM
[24] = second compound 0.316 µM, first compound 0.316 µM
[25] = second compound 0.316 µM, first compound 1 µM
[26] = second compound 1 µM, first compound 0.00316 µM
[27] = second compound 1 µM, first compound 0.01 µM
[28] = second compound 1 µM, first compound 0.0316 µM
[29] = second compound 1 µM, first compound 0.1 µM
[30] = second compound 1 µM, first compound 0.316 µM
[31] = second compound 1 µM, first compound 1 µM

COc1c(OCCCN2CCOCC2)ccc2c3n(c(=NC(=O)c4cnc(N)nc4)nc12)CCN3 + CCN1CCN(Cc2ccc(Nc3ncc(F)c(-c4cc(F)c5nc(C)n(C(C)C)c5c4)n3)nc2)CC1
IC50 [1]: 0.0423 µM
IC50 [2]: 0.0298 µM
IC50 [3]: 0.0297 µM
IC50 [4]: 0.042 µM
IC50 [5]: 0.0571 µM
viability, T/C [6]: 101%
viability, T/C [7]: 79.7%
viability, T/C [8]: 61.3%
viability, T/C [9]: 27.7%
viability, T/C (second compound 0.01 µM, first compound 0.316 µM): 9.2%
viability, T/C (second compound 0.01 µM, first compound 1 µM): 11.6%
viability, T/C [10]: 91.2%
viability, T/C [11]: 82.2%
viability, T/C [12]: 46.5%
viability, T/C [13]: 22.8%
viability, T/C (second compound 0.0316 µM, first compound 0.316 µM): 7.69%
viability, T/C (second compound 0.0316 µM, first compound 1 µM): 11.1%
viability, T/C [14]: 99.2%
viability, T/C [15]: 78.8%
viability, T/C [16]: 48.9%
viability, T/C [17]: 23.4%
viability, T/C [18]: 8.37%
viability, T/C [19]: 9.47%
viability, T/C [20]: 93.1%
viability, T/C [21]: 73.5%
viability, T/C [22]: 56.5%
viability, T/C [23]: 36.5%
viability, T/C [24]: 17.9%
viability, T/C [25]: 15%
viability, T/C [26]: 94%
viability, T/C [27]: 66.7%
viability, T/C [28]: 59%
viability, T/C [29]: 41%
viability, T/C [30]: 36.6%
viability, T/C [31]: 18%

CC(C)(C)c1cnc(CSc2cnc(NC(=O)C3CCNCC3)s2)o1 + CCN1CCN(Cc2ccc(Nc3ncc(F)c(-c4cc(F)c5nc(C)n(C(C)C)c5c4)n3)nc2)CC1
IC50 [1]: 0.0744 µM
IC50 [2]: 0.067 µM
IC50 [3]: 0.0647 µM
IC50 [4]: 0.0518 µM
IC50 [5]: 0.0172 µM
viability, T/C (second compound 0.01 µM, first compound 0.00949 µM): 112%
viability, T/C (second compound 0.01 µM, first compound 0.03 µM): 93%
viability, T/C (second compound 0.01 µM, first compound 0.0949 µM): 38.9%
viability, T/C (second compound 0.01 µM, first compound 0.3 µM): 23.7%
viability, T/C (second compound 0.01 µM, first compound 0.949 µM): 27.4%
viability, T/C (second compound 0.01 µM, first compound 3 µM): 29.8%
viability, T/C (second compound 0.0316 µM, first compound 0.00949 µM): 102%
viability, T/C (second compound 0.0316 µM, first compound 0.03 µM): 97.8%
viability, T/C (second compound 0.0316 µM, first compound 0.0949 µM): 29.4%
viability, T/C (second compound 0.0316 µM, first compound 0.3 µM): 19.5%
viability, T/C (second compound 0.0316 µM, first compound 0.949 µM): 26.8%
viability, T/C (second compound 0.0316 µM, first compound 3 µM): 27.6%
viability, T/C (second compound 0.1 µM, first compound 0.00949 µM): 108%
viability, T/C (second compound 0.1 µM, first compound 0.03 µM): 99.7%
viability, T/C (second compound 0.1 µM, first compound 0.0949 µM): 25%
viability, T/C (second compound 0.1 µM, first compound 0.3 µM): 21.7%
viability, T/C (second compound 0.1 µM, first compound 0.949 µM): 26.9%
viability, T/C (second compound 0.1 µM, first compound 3 µM): 27.2%
viability, T/C (second compound 0.316 µM, first compound 0.00949 µM): 94.5%
viability, T/C (second compound 0.316 µM, first compound 0.03 µM): 72.3%
viability, T/C (second compound 0.316 µM, first compound 0.0949 µM): 21.3%
viability, T/C (second compound 0.316 µM, first compound 0.3 µM): 22.3%
viability, T/C (second compound 0.316 µM, first compound 0.949 µM): 27.1%
viability, T/C (second compound 0.316 µM, first compound 3 µM): 30.4%
viability, T/C (second compound 1 µM, first compound 0.00949 µM): 63%
viability, T/C (second compound 1 µM, first compound 0.03 µM): 37.8%
viability, T/C (second compound 1 µM, first compound 0.0949 µM): 19.6%
viability, T/C (second compound 1 µM, first compound 0.3 µM): 22.8%
viability, T/C (second compound 1 µM, first compound 0.949 µM): 27.5%
viability, T/C (second compound 1 µM, first compound 3 µM): 32%

COc1c(OCCCN2CCOCC2)ccc2c3n(c(=NC(=O)c4cnc(N)nc4)nc12)CCN3
viability, T/C (compound 0.00316 µM): 89.3% and 87.5%
viability, T/C (compound 0.01 µM): 80.2% and 84.9%
viability, T/C (compound 0.0316 µM): 64.7% and 59.9%
viability, T/C (compound 0.1 µM): 32% and 36.9%
viability, T/C (compound 0.316 µM): 14% and 10.5%
viability, T/C (compound 1 µM): 14.2% and 13.4%
IC50 (curve of compound): 0.0519 µM

Cn1nccc1Nc1nccc(-c2ccn(C(CO)c3ccc(Cl)c(F)c3)c(=O)c2)n1 (stereo unspecified) + CC(C)NCC(C(=O)N1CCN(c2ncnc3c2C(C)CC3O)CC1)c1ccc(Cl)cc1
IC50 [3]: > 10 µM
IC50 [4]: > 10 µM
IC50 [5]: > 10 µM
IC50 (curve of first compound, second compound 3.16 µM): > 10 µM
IC50 (curve of first compound, second compound 10 µM): < 0.0316 µM
viability, T/C [16]: 82.7%
viability, T/C [17]: 85.4%
viability, T/C [18]: 91%
viability, T/C [19]: 116%
viability, T/C (second compound 0.1 µM, first compound 3.16 µM): 113%
viability, T/C (second compound 0.1 µM, first compound 10 µM): 98.5%
viability, T/C [22]: 72.7%
viability, T/C [23]: 77.4%
viability, T/C [24]: 78.3%
viability, T/C [25]: 77.6%
viability, T/C (second compound 0.316 µM, first compound 3.16 µM): 99.6%
viability, T/C (second compound 0.316 µM, first compound 10 µM): 76.8%
viability, T/C [28]: 65.2%
viability, T/C [29]: 66.7%
viability, T/C [30]: 74.4%
viability, T/C [31]: 74.6%
viability, T/C (second compound 1 µM, first compound 3.16 µM): 77.7%
viability, T/C (second compound 1 µM, first compound 10 µM): 77.5%
viability, T/C (second compound 3.16 µM, first compound 0.0316 µM): 51.9%
viability, T/C (second compound 3.16 µM, first compound 0.1 µM): 55%
viability, T/C (second compound 3.16 µM, first compound 0.316 µM): 52.1%
viability, T/C (second compound 3.16 µM, first compound 1 µM): 56.2%
viability, T/C (second compound 3.16 µM, first compound 3.16 µM): 64.2%
viability, T/C (second compound 3.16 µM, first compound 10 µM): 72.6%
viability, T/C (second compound 10 µM, first compound 0.0316 µM): 43.8%
viability, T/C (second compound 10 µM, first compound 0.1 µM): 41%
viability, T/C (second compound 10 µM, first compound 0.316 µM): 38.4%
viability, T/C (second compound 10 µM, first compound 1 µM): 49.4%
viability, T/C (second compound 10 µM, first compound 3.16 µM): 44.2%
viability, T/C (second compound 10 µM, first compound 10 µM): 44.2%

CC(C)NCC(C(=O)N1CCN(c2ncnc3c2C(C)CC3O)CC1)c1ccc(Cl)cc1 (stereo unspecified)
viability, T/C (compound 0.1 µM): 86.9% [middle of 13 runs]
viability, T/C (compound 0.316 µM): 75.5% [middle of 13 runs]
viability, T/C (compound 1 µM): 65.3% [middle of 13 runs]
viability, T/C (compound 3.16 µM): 54.2% [middle of 13 runs]

CC(C)n1nc(-c2ccc3oc(N)nc3c2)c2c(N)ncnc21 + CCN1CCN(Cc2ccc(Nc3ncc(F)c(-c4cc(F)c5nc(C)n(C(C)C)c5c4)n3)nc2)CC1
IC50 [1]: 0.0106 µM
IC50 [2]: 0.00731 µM
IC50 [3]: 0.00734 µM
IC50 [4]: 0.0145 µM
IC50 [5]: 0.0256 µM
viability, T/C (second compound 0.01 µM, first compound 0.000316 µM): 90.9%
viability, T/C (second compound 0.01 µM, first compound 0.001 µM): 103%
viability, T/C [6]: 71.1%
viability, T/C [7]: 55.6%
viability, T/C [8]: 21.6%
viability, T/C [9]: 11.9%
viability, T/C (second compound 0.0316 µM, first compound 0.000316 µM): 89.3%
viability, T/C (second compound 0.0316 µM, first compound 0.001 µM): 90.2%
viability, T/C [10]: 73.3%
viability, T/C [11]: 40.8%
viability, T/C [12]: 21%
viability, T/C [13]: 13.8%
viability, T/C (second compound 0.1 µM, first compound 0.000316 µM): 95.4%
viability, T/C (second compound 0.1 µM, first compound 0.001 µM): 94%
viability, T/C [14]: 69.2%
viability, T/C [15]: 44.6%
viability, T/C [16]: 19.3%
viability, T/C [17]: 16.8%
viability, T/C (second compound 0.316 µM, first compound 0.000316 µM): 116%
viability, T/C (second compound 0.316 µM, first compound 0.001 µM): 101%
viability, T/C [20]: 78.2%
viability, T/C [21]: 58.8%
viability, T/C [22]: 34.4%
viability, T/C [23]: 28.7%
viability, T/C (second compound 1 µM, first compound 0.000316 µM): 102%
viability, T/C (second compound 1 µM, first compound 0.001 µM): 83.1%
viability, T/C [26]: 80.6%
viability, T/C [27]: 55.3%
viability, T/C [28]: 47.8%
viability, T/C [29]: 41.6%
